Source: ChEMBL document CHEMBL3774317, “Design and synthesis of novel tamoxifen analogues that avoid CYP2D6 metabolism” (Eur J Med Chem, 2016)
pIC50: −log10 of the molar value.

Assays:
SK-MEL-28 = test: Cytotoxicity against human SK-MEL-28 cells assessed as growth inhibition after 48 hrs by SRB assay; format: functional; conditions: SK-MEL-28, 48 h
MDA-MB-231 = test: Cytotoxicity against human MDA-MB-231 cells assessed as growth inhibition after 48 hrs by SRB assay; format: functional; conditions: MDA-MB-231, 48 h
[1] = Cytotoxicity against human UO31 cells assessed as growth inhibition after 48 hrs by SRB assay; format: functional; conditions: UO-31, 48 h
NCI-H226 = test: Cytotoxicity against human NCI-H226 cells assessed as growth inhibition after 48 hrs by SRB assay; format: functional; conditions: NCI-H226, 48 h
T47D = test: Cytotoxicity against human T47D cells assessed as growth inhibition after 48 hrs by SRB assay; format: functional
MCF7 [2] = test: Antiproliferative activity against human MCF7 cells after 72 hrs by MTT assay; conditions: mcf7
MCF7 [3] = test: Cytotoxicity against human MCF7 cells assessed as growth inhibition after 48 hrs by SRB assay; format: functional; conditions: MCF7, 48 h
[4] = Cytotoxicity against human SNB19 cells assessed as growth inhibition after 48 hrs by SRB assay; format: functional; conditions: SNB-19, 48 h
786-0 = test: Cytotoxicity against human 786-0 cells assessed as growth inhibition after 48 hrs by SRB assay; format: functional; conditions: 786-0, 48 h
[5] = Cytotoxicity against human IGROV1 cells assessed as growth inhibition after 48 hrs by SRB assay; format: functional; conditions: IGROV-1, 48 h
Malme-3M = test: Cytotoxicity against human MALME-3M cells assessed as growth inhibition after 48 hrs by SRB assay; format: functional
[6] = Cytotoxicity against human SF268 cells assessed as growth inhibition after 48 hrs by SRB assay; format: functional; conditions: SF-268, 48 h
NCI-H460 = test: Cytotoxicity against human NCI-H460 cells assessed as growth inhibition after 48 hrs by SRB assay; format: functional; conditions: NCI-H460, 48 h
MDA-MB-435 = test: Cytotoxicity against human MDA-MB-435 cells assessed as growth inhibition after 48 hrs by SRB assay; format: functional; conditions: MDA-MB-435, 48 h
[7] = Cytotoxicity against human SNB75 cells assessed as growth inhibition after 48 hrs by SRB assay; format: functional; conditions: SNB-75, 48 h
[8] = Cytotoxicity against human NCI-ADR-RES cells assessed as growth inhibition after 48 hrs by SRB assay; format: functional
[9] = Cytotoxicity against human BT549 cells assessed as growth inhibition after 48 hrs by SRB assay; format: functional; conditions: BT-549, 48 h
KM12 = test: Cytotoxicity against human KM12 cells assessed as growth inhibition after 48 hrs by SRB assay; format: functional; conditions: KM12, 48 h
[10] = Cytotoxicity against human DU145 cells assessed as growth inhibition after 48 hrs by SRB assay; format: functional; conditions: DU-145, 48 h
[11] = Cytotoxicity against human HOP62 cells assessed as growth inhibition after 48 hrs by SRB assay; format: functional; conditions: HOP-62, 48 h
[12] = Cytotoxicity against human Hs 578T cells assessed as growth inhibition after 48 hrs by SRB assay; format: functional
[13] = Cytotoxicity against human SW620 cells assessed as growth inhibition after 48 hrs by SRB assay; format: functional; conditions: SW-620, 48 h
[14] = Cytotoxicity against human PC3 cells assessed as growth inhibition after 48 hrs by SRB assay; format: functional; conditions: PC-3, 48 h
HT-29 = test: Cytotoxicity against human HT-29 cells assessed as growth inhibition after 48 hrs by SRB assay; format: functional; conditions: HT-29, 48 h
SK-MEL-5 = test: Cytotoxicity against human SK-MEL-5 cells assessed as growth inhibition after 48 hrs by SRB assay; format: functional; conditions: SK-MEL-5, 48 h
[15] = Cytotoxicity against human RXF393 cells assessed as growth inhibition after 48 hrs by SRB assay; format: functional; conditions: RXF 393, 48 h
[16] = Cytotoxicity against human SF295 cells assessed as growth inhibition after 48 hrs by SRB assay; format: functional; conditions: SF-295, 48 h
[17] = Cytotoxicity against human OVCAR3 cells assessed as growth inhibition after 48 hrs by SRB assay; format: functional; conditions: OVCAR-3, 48 h
SR = test: Cytotoxicity against human SR cells assessed as growth inhibition after 48 hrs by SRB assay; format: functional
[18] = Cytotoxicity against human OVCAR5 cells assessed as growth inhibition after 48 hrs by SRB assay; format: functional; conditions: OVCAR-5, 48 h
[19] = Cytotoxicity against human OVCAR8 cells assessed as growth inhibition after 48 hrs by SRB assay; format: functional; conditions: OVCAR-8, 48 h
A549 = test: Cytotoxicity against human A549 cells assessed as growth inhibition after 48 hrs by SRB assay; format: functional; conditions: A549, 48 h
CCRF-CEM = test: Cytotoxicity against human CCRF-CEM cells assessed as growth inhibition after 48 hrs by SRB assay; format: functional
[20] = read-out: LC50 (the source's name)

With CCCCCCCCCC(=O)Oc1ccc(/C(=C(/C)c2ccccc2)c2ccc(OCCN3CCCC3)cc2)cc1 the LC50 (concentration killing 50% of starting cells) (SK-MEL-28) was 28.6 µM, the TGI (SK-MEL-28) was 15.3 µM and the GI50 (MDA-MB-231) was 1.02 µM. It also gave an LC50 (MDA-MB-231) of 39.9 µM, a TGI (MDA-MB-231) of 20.2 µM and a GI50 [1] of 6.72 µM. It also gave a TGI [1] of 14.2 µM, a CC50 [1, 20] of 29.8 µM and a GI50 (NCI-H226) of 9.42 µM. It also gave an LC50 (50% lethal concentration) (NCI-H226) of 36.4 µM, a TGI (NCI-H226) of 18.5 µM and an LC50 (T47D) of 39.9 µM. For the same compound, the TGI (T47D) was 14.4 µM, the pIC50 (MCF7 [2]) was over 6.00 and the GI50 (MCF7 [3]) was under 5 µM. The TGI (MCF7 [3]) was 10.3 µM, the CC50 (MCF7 [3]; [20]) was 28 µM and the GI50 [4] was 9.04 µM. The TGI [4] was 17.7 µM, the CC50 [4, 20] was 34.7 µM and the GI50 (786-0) was 8.77 µM. It also gave a TGI (786-0) of 16.8 µM, a CC50 (786-0; [20]) of 32.2 µM and a GI50 [5] of 8.87 µM. For the same compound, the TGI [5] was 19.5 µM, the CC50 [5, 20] was 43.7 µM and the GI50 (Malme-3M) was 7.76 µM. The TGI (Malme-3M) was 15.7 µM, the CC50 (Malme-3M; [20]) was 31.9 µM and the GI50 [6] was 8.16 µM. It also gave an LC50 [6] of 36.3 µM, a TGI [6] of 17.2 µM and a GI50 (NCI-H460) of 8.46 µM. For the same compound, the TGI (NCI-H460) was 15.9 µM, the CC50 (NCI-H460; [20]) was 29.9 µM and the GI50 (MDA-MB-435) was 7.47 µM. For the same compound, the TGI (MDA-MB-435) was 14.1 µM, the CC50 (MDA-MB-435; [20]) was 26.5 µM and the GI50 [7] was 6.55 µM. It also gave an LC50 [7] of 27.9 µM, a TGI [7] of 13.5 µM and a GI50 [8] of 8.03 µM. It also gave a TGI [8] of 16.8 µM, a CC50 [8, 20] of 35.4 µM and a GI50 [9] of 8.22 µM. For the same compound, the TGI [9] was 16.8 µM, the CC50 [9, 20] was 34.5 µM and the GI50 (KM12) was 8.79 µM. For the same compound, the LC50 (concentration giving 50% net cell kill) (KM12) was 31.7 µM, the TGI (KM12) was 16.7 µM and the GI50 [10] was 8 µM. For the same compound, the LC50 [10] was 27.5 µM, the TGI [10] was 14.8 µM and the GI50 [11] was 8.75 µM. The LC50 (concentration giving 50% net cell kill) [11] was 34.1 µM, the TGI [11] was 17.3 µM and the GI50 [12] was 9.55 µM. It also gave a TGI [12] of 32.2 µM, a CC50 [12, 20] of over 50 µM and a GI50 [13] of 8.57 µM. For the same compound, the LC50 [13] was 28.5 µM, the TGI [13] was 15.6 µM and the GI50 [14] was 8.28 µM. The LC50 [14] was 30 µM, the TGI [14] was 15.7 µM and the TGI (HT-29) was 12.3 µM. For the same compound, the CC50 (HT-29; [20]) was 27 µM, the GI50 (SK-MEL-5) was 8.13 µM and the TGI (SK-MEL-5) was 14.9 µM. For the same compound, the CC50 (SK-MEL-5; [20]) was 27.3 µM, the GI50 [15] was 6.95 µM and the TGI [15] was 14.1 µM. It also gave a CC50 [15, 20] of 28.8 µM, a GI50 [16] of 7.93 µM and an LC50 (concentration killing 50% of cells) [16] of 28.6 µM. For the same compound, the TGI [16] was 15.1 µM, the GI50 [17] was 8.18 µM and the LC50 [17] was 31.6 µM. For the same compound, the TGI [17] was 16.1 µM, the GI50 (SR) was 9.08 µM and the TGI (SR) was 19 µM. It also gave a CC50 (SR; [20]) of 39.7 µM, a GI50 [18] of 8.56 µM and an LC50 (concentration killing 50% of cells) [18] of 31.8 µM. For the same compound, the TGI [18] was 16.5 µM, the GI50 [19] was 9.78 µM and the TGI [19] was 20.8 µM. The CC50 [19, 20] was 44.2 µM, the GI50 (A549) was 9.35 µM and the LC50 (A549) was 33.4 µM. The TGI (A549) was 17.7 µM, the GI50 (CCRF-CEM) was 9.51 µM and the TGI (CCRF-CEM) was 22.3 µM. For the same compound, the CC50 (CCRF-CEM; [20]) was 50 µM.
